According to patent US9918964B2, “Reducing platelet activation, aggregation and platelet-stimulated thrombosis or blood coagulation by reducing mitochondrial respiration” (priority 2010, dated 2018):
Converted amounts (≈) assume the structure as drawn. “And” between values parts separate entries of the source, which are not always exact repeats. Identical values can stand only once. Like-named read-outs stand apart in the source and are kept apart here.

What was measured:
[1] = system: mitochondria isolated from liver of tilapia (Sarotheridon mossambica); format: biochemical
[2] = system: platelets in whole blood; assay: Platelet function testing with the Hemostasis Mechanism Analyzer (HMA): clumping, sticking, clotting in whole blood; format: cell-based, human; conditions: for activity at 3300 µg/mL / activity at 5000 µg/mL / activity at 6700 µg/mL / activity at 700 µg/mL / activity at 670 µg/mL / activity at 11700 µg/mL / activity at 23300 µg/mL: Homo sapiens, Platelet; for activity at 700 µg/mL: Dosage (mg/ml) 0.7; for activity at 670 µg/mL: Dosage (mg/ml) 0.67
[3] = in vitro whole blood assay, clumping, sticking, clotting
[4] = Dosage (mg/ml) 3.3, 0 dosage = 100, read-out: % clot time increase
[5] = Dosage (mg/ml) 3.3, 0 dosage = 100, read-out: % clump time increase
[6] = Dosage (mg/ml) 3.3, 0 dosage = 100, read-out: % stick time increase
[7] = Dosage (mg/ml) 5, 0 dosage = 100, read-out: % clot time increase
[8] = Dosage (mg/ml) 5, 0 dosage = 100, read-out: % clump time increase
[9] = Dosage (mg/ml) 5, 0 dosage = 100, read-out: % stick time increase
[10] = Dosage (mg/ml) 6.7, 0 dosage = 100, read-out: % clot time increase
[11] = Dosage (mg/ml) 6.7, 0 dosage = 100, read-out: % clump time increase
[12] = Dosage (mg/ml) 6.7, 0 dosage = 100, read-out: % stick time increase
[13] = 0 dosage = 100, read-out: % clot time increase
[14] = 0 dosage = 100, read-out: % clump time increase
[15] = 0 dosage = 100, read-out: % stick time increase
[16] = read-out: % clump time increase
[17] = read-out: % stick time increase
[18] = Dosage (mg/ml) 11.7, 0 dosage = 100, read-out: % clot time increase
[19] = Dosage (mg/ml) 11.7, 0 dosage = 100, read-out: % clump time increase
[20] = Dosage (mg/ml) 11.7, 0 dosage = 100, read-out: % stick time increase
[21] = Dosage (mg/ml) 23.3, 0 dosage = 100, read-out: % clot time increase
[22] = Dosage (mg/ml) 23.3, 0 dosage = 100, read-out: % clump time increase
[23] = Dosage (mg/ml) 23.3, 0 dosage = 100, read-out: % stick time increase

Compound	IC50 (mg/ml) mitochondria inhibition [1]	activity in the platelet assays (active agent or inactive) [2, 3]	activity at 3300 µg/mL [2, 4]	activity at 3300 µg/mL [2, 5]	activity at 3300 µg/mL [2, 6]	activity at 6700 µg/mL [2, 10]	activity at 6700 µg/mL [2, 11]	activity at 6700 µg/mL [2, 12]	also measured
c1cncnc1 [Compound 81, pyrimidine]	51.5 mg/mL (≈ 643 mM)	inactive							
Clc1nnnn1-c1ccccc1 [Compound 54, 5-chloro-1-phenyl-tetrazole]	12.5 mg/mL (≈ 69.2 mM)	inactive							
Cn1c(-c2ccccc2)c[nH]c1=S [Compound 91, 3-methyl-4-phenyl-1H-imidazole-2-thione]	5.4 mg/mL (≈ 28.4 mM)	inactive							
Cn1cncn1 [Compound 8, 1-Methyl-1,2,4-triazole]			104%	105%	98%	105%	130%	121%	activity at 5000 µg/mL [2, 7]: 105%; activity at 5000 µg/mL [2, 8]: 121%; activity at 5000 µg/mL [2, 9]: 118%
C=CCSCC=C [Compound 86, 3-allylsulfanylprop-1-ene]		none of them were active agents							
OC(c1ccccc1)c1nnn[nH]1 (centres unmarked) [Compound 24, phenyl(1H-tetrazol-5-yl)methanol]			105%	126%	124%	116%	160%	143%	activity at 700 µg/mL [2, 13]: 96%; activity at 700 µg/mL [2, 14]: 109%; activity at 700 µg/mL [2, 15]: 105%; activity at 5000 µg/mL [2, 7]: 113%; activity at 5000 µg/mL [2, 8]: 156%; activity at 5000 µg/mL [2, 9]: 152%
NC(=O)c1nn[nH]n1 [Compound 71, 2H-tetrazole-5-carboxamide]	36.3 mg/mL (≈ 321 mM)								activity at 3300 µg/mL ([2]; read-out: % clot time increase): 112%; activity at 5000 µg/mL ([2]; read-out: % clot time increase): 122%; activity at 6700 µg/mL ([2]; read-out: % clot time increase): 137%; activity at 3300 µg/mL [2, 16]: 126%; activity at 5000 µg/mL [2, 16]: 171%; activity at 6700 µg/mL [2, 16]: 236%; activity at 3300 µg/mL [2, 17]: 116%; activity at 5000 µg/mL [2, 17]: 153%; activity at 6700 µg/mL [2, 17]: 205%
CCOC(=O)Cc1nnn[nH]1 [Compound 80, ethyl 2-(1H-tetrazol-5-yl)acetate]	100 mg/mL (≈ 640 mM)		110%	107%	104%	133%	207%	209%	activity at 5000 µg/mL [2, 7]: 121%; activity at 5000 µg/mL [2, 8]: 143%; activity at 5000 µg/mL [2, 9]: 141%
COCCc1nn[nH]n1 [Compound 68, 5-(2-methoxyethyl)-2H-tetrazole]			107%	100%	114%	129%	186%	175%	activity at 670 µg/mL [2, 13]: 108%; activity at 670 µg/mL [2, 14]: 100%; activity at 670 µg/mL [2, 15]: 110%
C1CCc2nnnn2CC1 [Compound 52, 6,7,8,9-tetrahydro-5H-tetrazolo[1,5-a]azepine]									activity at 3300 µg/mL ([2]; read-out: % clot time increase): 105%; activity at 5000 µg/mL ([2]; read-out: % clot time increase): 112%; activity at 6700 µg/mL ([2]; read-out: % clot time increase): 117%; activity at 3300 µg/mL [2, 16]: 115%; activity at 5000 µg/mL [2, 16]: 143%; activity at 6700 µg/mL [2, 16]: 130%; activity at 3300 µg/mL [2, 17]: 120%; activity at 5000 µg/mL [2, 17]: 138%; activity at 6700 µg/mL [2, 17]: 131%
O=C(O)CCCCC1CCSS1 (single isomer, unassigned) [Compound 90, 5-[(3R or 3S)-dithiolan-3-yl]pentanoic acid]	37.1 mg/mL (≈ 180 mM)	inactive	97%	102%	104%	104%	97%	100%	activity at 11700 µg/mL [2, 18]: 100%; activity at 11700 µg/mL [2, 19]: 110%; activity at 11700 µg/mL [2, 20]: 110%; activity at 23300 µg/mL [2, 21]: 110%; activity at 23300 µg/mL [2, 22]: 129%; activity at 23300 µg/mL [2, 23]: 136%
OCc1c[nH]c2ccccc12 [Compound 77, 1H-indol-3-ylmethanol]	82.8 mg/mL (≈ 563 mM)	met the criteria for active agents	104%	81%	86%	105%	109%	97%	activity at 700 µg/mL [2, 13]: 102%; activity at 700 µg/mL [2, 14]: 95%; activity at 700 µg/mL [2, 15]: 92%; activity at 11700 µg/mL [2, 18]: 108%; activity at 11700 µg/mL [2, 19]: 116%; activity at 11700 µg/mL [2, 20]: 114%; activity at 23300 µg/mL [2, 21]: 126%; activity at 23300 µg/mL [2, 22]: 140%; activity at 23300 µg/mL [2, 23]: 100%
N=C(N)NC(N)=S [Compound 102, carbamimidoylthiourea]		none of them were active agents							
Oc1ccc(/C=C/c2cc(O)cc(O)c2)cc1 [Compound 89, 5-[(E)-2-(4-hydroxyphenyl)vinyl] benzene-1,3-diol]									activity in the platelet assays (active agent or inactive) [2]: none of them were active agents
Cn1nnnc1S [Compound 53, 1-methyltetrazole-5-thiol]	27.5 mg/mL (≈ 237 mM)		117%	124%	117%	160%	292%	265%	activity at 5000 µg/mL [2, 7]: 132%; activity at 5000 µg/mL [2, 8]: 185%; activity at 5000 µg/mL [2, 9]: 176%
FC(F)(F)c1ccc(-c2nnn[nH]2)cc1 [Compound 18, 5-[4-(trifluoromethyl)phenyl]-1H-tetrazole]						106%	127%	106%	
COc1cc(/C=C/C(=O)/C=C(O)/C=C/c2ccc(O)c(OC)c2)ccc1O [Compound 85, (1E,4Z,6E)-5-hydroxy-1,7-bis(4-hydroxy-3-methoxy-phenyl)hepta-1,4,6-trien-3-one]		none of them were active agents							
Cc1ncsc1CCCl [Compound 45, 5-(2-chloroethyl)-4-methyl-thiazole]									activity at 6700 µg/mL ([2]; read-out: % clot time increase): 101%; activity at 6700 µg/mL [2, 16]: 119%; activity at 6700 µg/mL [2, 17]: 108%
Cn1cc[nH]c1=S [Compound 78, 3-methyl-1H-imidazole-2-thione, reference compound]		met the criteria for active agents							activity at 6700 µg/mL ([2]; read-out: % clot time increase): 110%; activity at 11700 µg/mL ([2]; read-out: % clot time increase): 123%; activity at 23300 µg/mL ([2]; read-out: % clot time increase): 156%; activity at 6700 µg/mL [2, 16]: 124%; activity at 11700 µg/mL [2, 16]: 132%; activity at 23300 µg/mL [2, 16]: 216%; activity at 6700 µg/mL [2, 17]: 101%; activity at 11700 µg/mL [2, 17]: 118%; activity at 23300 µg/mL [2, 17]: 203%
1H-triazole [Compound 99]									% clot time increase [2]: 108% and 103%; % clump time increase [2]: 103% and 99%; % stick time increase [2]: 99% and 104%
Cc1ncsc1CCO [Compound 60, 2-(4-methylthiazol-5-yl)ethanol]			104%	136%	135%	115%	192%	182%	activity at 700 µg/mL [2, 13]: 100%; activity at 700 µg/mL [2, 14]: 108%; activity at 700 µg/mL [2, 15]: 103%; activity at 5000 µg/mL [2, 7]: 110%; activity at 5000 µg/mL [2, 8]: 158%; activity at 5000 µg/mL [2, 9]: 155%
CCCCC[C@H](O)CC(=O)CCc1ccc(O)c(OC)c1 [Compound 88, (5S)-5-hydroxy-1-(4-hydroxy-3-methoxy-phenyl)decan-3-one]		none of them were active agents	104%	107%	100%	102%	106%	101%	activity at 11700 µg/mL [2, 18]: 104%; activity at 11700 µg/mL [2, 19]: 111%; activity at 11700 µg/mL [2, 20]: 110%; activity at 23300 µg/mL [2, 21]: 100%; activity at 23300 µg/mL [2, 22]: 128%; activity at 23300 µg/mL [2, 23]: 132%
c1ccc(-c2cnn[nH]2)cc1 [Compound 2, 5-phenyl-1H-triazole]		met the criteria for active agents							
COc1ccc(-c2nnn[nH]2)cc1 [Compound 26, 5-(4-methoxyphenyl)-1H-tetrazole]						102%	122%	118%	
Cn1cnnc1S [Compound 33, 4-methyl-1,2,4-triazole-3-thiol]						108%	115%	123%	activity at 5000 µg/mL [2, 7]: 100%; activity at 5000 µg/mL [2, 8]: 100%; activity at 5000 µg/mL [2, 9]: 119%
